# From patent publication US12201684B2, “Compositions for stimulation of mammalian innate immune resistance to pathogens” (priority 2009, dated 2025)
# Legend:
# [1] = test system: P. aeruginosa strain PA103; assay: In vivo inhalational P. aeruginosa challenge, survival; conditions: wild type mice; aerosolized treatment 24 h prior to challenge
# [2] = test system: neutrophils and macrophages in BAL fluid; assay: Bronchoalveolar lavage fluid leukocyte counts after aerosolized TLR ligands; format: in vivo, mice
# [3] = cited from earlier work
molecule,measurement,setting,value
"CC(C)Cn1cnc2c(N)nc3ccccc3c21 [imiquimod, 1-(2-methylpropyl)-1H-imidazo[4,5-c]quinolin-4-amine]",protection against lethal P. aeruginosa pneumonia (survival),[1],trend towards protection
same,neutrophil infiltration above a certain ligand concentration,"[2]; BAL 24 h after treatment, highest concentrations tested",reduction in neutrophil infiltration
poly(I:C),influx of macrophages on BAL,[2]; 24 h after treatment,significant influx
monophosphoryl lipid A-synthetic [MPLA],protection against lethal P. aeruginosa pneumonia (survival),[1],non-significant trend towards increased mortality
"CCC(=O)O[C@]1(C(=O)SCF)[C@H](C)C[C@H]2[C@@H]3C[C@H](F)C4=CC(=O)C=C[C@]4(C)[C@@]3(F)[C@@H](O)C[C@@]21C [Fluticasone propionate, S-(fluromethyl)6α,9-difluoro-11β-17-dihydroxy-16α-methyl-3-oxoandrosta-1,4-diene-17β-carbothioate, 17-propionate]",solubility in dimethyl sulfoxide and dimethylformamide,[3],freely soluble
same,solubility in methanol and 95% ethanol,[3],slightly soluble
same,solubility in water,[3],practically insoluble
